Data taken from patent US7928140B2, “Benzothiazole PI3 kinase modulators for cancer treatment” (Amgen Inc., priority 2007, dated 2011).
Like-named read-outs stand apart in the source and are kept apart here.

Key:
PI3K α = molecular target: T1, PI3K α (Homo sapiens, UniProt P42336); experiment: In vitro PI3 kinase enzyme assay (alpha), ATP loss, bioluminescence; type: biochemical; conditions: read-out: PI3Kα ATP loss IC50;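 note: purified p110α/p85 heterodimer acting on PtdIns(4,5)P2 at room temperature, remaining ATP read by luminescence, inhibition scaled between compound-free wells with and without enzyme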
T1 construct: Full length p110 subunits of PI3K α, β and δ, N-terminally labeled with polyHis tag; polyHis (N); made in house; host or cells: Sf9 insect cells (baculovirus)
T1 sequence (P42336 whole entry, species assumed): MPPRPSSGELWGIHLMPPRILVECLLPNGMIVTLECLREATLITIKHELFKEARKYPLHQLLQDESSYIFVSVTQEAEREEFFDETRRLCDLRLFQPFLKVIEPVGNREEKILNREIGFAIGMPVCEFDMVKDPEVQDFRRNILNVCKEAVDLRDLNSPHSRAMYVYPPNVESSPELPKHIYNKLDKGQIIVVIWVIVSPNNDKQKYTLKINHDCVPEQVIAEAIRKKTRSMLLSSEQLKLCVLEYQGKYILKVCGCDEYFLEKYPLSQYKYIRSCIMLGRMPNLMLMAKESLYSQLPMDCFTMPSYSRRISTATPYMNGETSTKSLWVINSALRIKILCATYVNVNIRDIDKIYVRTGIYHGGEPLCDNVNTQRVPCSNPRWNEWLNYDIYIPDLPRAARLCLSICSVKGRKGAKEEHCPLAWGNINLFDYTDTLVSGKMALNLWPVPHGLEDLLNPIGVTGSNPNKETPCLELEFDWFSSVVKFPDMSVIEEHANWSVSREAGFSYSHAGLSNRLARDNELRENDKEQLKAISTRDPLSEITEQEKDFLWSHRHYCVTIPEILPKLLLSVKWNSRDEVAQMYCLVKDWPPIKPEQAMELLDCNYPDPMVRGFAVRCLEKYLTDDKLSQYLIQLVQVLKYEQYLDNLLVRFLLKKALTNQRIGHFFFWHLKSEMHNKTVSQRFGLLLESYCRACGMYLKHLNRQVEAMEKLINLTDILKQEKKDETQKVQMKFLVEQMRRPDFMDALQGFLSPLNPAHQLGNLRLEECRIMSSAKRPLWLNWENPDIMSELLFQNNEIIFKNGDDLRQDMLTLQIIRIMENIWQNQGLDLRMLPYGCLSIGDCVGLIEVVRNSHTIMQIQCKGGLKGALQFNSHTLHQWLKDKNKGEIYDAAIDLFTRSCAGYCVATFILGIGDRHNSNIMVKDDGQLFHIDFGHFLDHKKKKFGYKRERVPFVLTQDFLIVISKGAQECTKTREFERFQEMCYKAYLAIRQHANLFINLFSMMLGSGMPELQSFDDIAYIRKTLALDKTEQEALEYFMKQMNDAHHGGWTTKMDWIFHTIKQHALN
T1 sequence (P27986 whole entry partner, species assumed): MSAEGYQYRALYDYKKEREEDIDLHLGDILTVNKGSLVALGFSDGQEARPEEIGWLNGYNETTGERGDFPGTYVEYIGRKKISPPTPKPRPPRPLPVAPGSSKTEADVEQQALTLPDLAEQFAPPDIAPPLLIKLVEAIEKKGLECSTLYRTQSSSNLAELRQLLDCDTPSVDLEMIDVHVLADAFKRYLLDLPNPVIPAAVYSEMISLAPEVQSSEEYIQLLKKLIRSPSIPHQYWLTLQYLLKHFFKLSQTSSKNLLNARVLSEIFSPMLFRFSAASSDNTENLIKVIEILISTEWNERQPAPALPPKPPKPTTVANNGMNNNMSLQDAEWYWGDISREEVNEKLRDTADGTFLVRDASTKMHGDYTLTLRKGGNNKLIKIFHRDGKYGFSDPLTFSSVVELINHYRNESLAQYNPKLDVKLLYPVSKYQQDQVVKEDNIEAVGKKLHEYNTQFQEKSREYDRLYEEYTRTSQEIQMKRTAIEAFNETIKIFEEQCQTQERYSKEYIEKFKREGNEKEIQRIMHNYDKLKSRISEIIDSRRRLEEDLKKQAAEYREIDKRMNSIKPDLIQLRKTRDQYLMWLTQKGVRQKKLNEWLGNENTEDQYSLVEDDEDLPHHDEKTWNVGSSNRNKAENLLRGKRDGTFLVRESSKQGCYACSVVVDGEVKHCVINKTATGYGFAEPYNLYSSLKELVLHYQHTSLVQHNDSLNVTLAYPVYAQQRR

[1] = system: phosphorylation of Serine 473 in Akt, HCT 116 human colon carcinoma cells; experiment: Cell-based phospho-AKT Ser473 assay (MSD sandwich immunoassay, IGF-1 stimulated)
Method: This assay determines the ability of test compounds to inhibit the phosphorylation of […] in Akt using a MSD based sandwich immunoassay (Meso Scale Detection, catalogue # N411CAB-1). […] Prior to the assay cells were detached from the culture flask with trypsin, and re-suspended in complete media to give a final concentration of 1.6×10^5 cells per ml. Aliquots (100 μl) of the HCT116 cell suspension were seeded into each well of a 96 well tissue culture plate (Corning Incorporated COSTAR, catalogue#3595) to give a final density of 16,000 cells per well. Cells were then incubated overnight at 37° C. The following day the cells were treated with serially diluted test compounds and incubated for 2 hours at 37° C. […] As a maximum response control, wells contained 0.5% DMSO in place of test compound. The plates were mixed at 700 rpm for 2 min to ensure even distribution of the test compound and incubated for 2 hours at 37° C. Cells were then stimulated with insulin-like growth factor 1 (Sigma, product #13769) at final concentration of 100 ng/ml for 15 minutes at 37° C. The media was then removed and the cells treated with 80 μl cell-lysis buffer (MSD) containing a cocktail of protease and phosphatase inhibitors for one hour at 4° C. […] The detection antibody was removed and plates were then washed four times with 200 μl per well of Tris wash buffer. An aliquot of 150 μl of diluted MSD read buffer was then applied to each well, and the electrochemiluminescent signal was measured using a MSD SECTORTM plate reader. This instrument measures the intensity of emitted light to determine a quantitative measure of phosphorylated Akt in each well. The dose-response data obtained with each compound were analyzed and the IC50 inhibition of Akt phosphorylation at Ser473 calculated.

PI3K β = molecular target: T2, PI3K β (Homo sapiens, UniProt P42338); experiment: In vitro PI3 kinase enzyme assay (beta), ATP loss, bioluminescence; type: biochemical; conditions: read-out: PI3Kβ ATP loss IC50;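 note: purified p110β/p85 heterodimer with PtdIns(4,5)P2 as acceptor, incubated at room temperature, leftover ATP read by luminescence, inhibition scaled to compound-free wells with and without enzyme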
T2 construct: Full length p110 subunits of PI3K α, β and δ, N-terminally labeled with polyHis tag; polyHis (N); made in house; host or cells: Sf9 insect cells (baculovirus)
T2 sequence (P42338 whole entry): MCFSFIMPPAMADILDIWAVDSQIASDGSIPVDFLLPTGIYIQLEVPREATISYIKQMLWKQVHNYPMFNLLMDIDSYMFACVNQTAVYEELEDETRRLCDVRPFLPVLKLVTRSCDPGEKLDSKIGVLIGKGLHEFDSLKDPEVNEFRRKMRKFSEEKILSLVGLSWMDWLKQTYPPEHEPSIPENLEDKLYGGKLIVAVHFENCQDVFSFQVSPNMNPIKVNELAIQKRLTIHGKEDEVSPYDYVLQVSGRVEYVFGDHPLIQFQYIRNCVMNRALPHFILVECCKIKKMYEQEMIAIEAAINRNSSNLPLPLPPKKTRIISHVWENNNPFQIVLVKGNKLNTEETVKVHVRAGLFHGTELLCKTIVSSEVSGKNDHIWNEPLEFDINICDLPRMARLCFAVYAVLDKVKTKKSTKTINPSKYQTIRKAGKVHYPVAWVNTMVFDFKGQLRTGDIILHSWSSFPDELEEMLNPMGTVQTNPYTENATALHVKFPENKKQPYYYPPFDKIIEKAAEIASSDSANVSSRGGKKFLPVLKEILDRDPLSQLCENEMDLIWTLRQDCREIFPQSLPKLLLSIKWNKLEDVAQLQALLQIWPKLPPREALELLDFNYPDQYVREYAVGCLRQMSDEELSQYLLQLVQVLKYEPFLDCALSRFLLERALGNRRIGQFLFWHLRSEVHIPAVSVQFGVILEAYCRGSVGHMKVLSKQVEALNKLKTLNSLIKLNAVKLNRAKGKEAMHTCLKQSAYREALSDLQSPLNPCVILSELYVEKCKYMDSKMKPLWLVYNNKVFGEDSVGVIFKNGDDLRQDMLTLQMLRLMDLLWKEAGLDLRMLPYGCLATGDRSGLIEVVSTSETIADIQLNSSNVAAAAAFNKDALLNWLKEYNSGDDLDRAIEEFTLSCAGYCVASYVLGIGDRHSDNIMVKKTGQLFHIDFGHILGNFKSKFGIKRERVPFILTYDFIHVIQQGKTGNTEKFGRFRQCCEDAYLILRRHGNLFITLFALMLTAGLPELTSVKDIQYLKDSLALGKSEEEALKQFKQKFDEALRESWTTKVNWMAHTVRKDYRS
T2 sequence (P27986 whole entry partner): as the sequence (P27986 whole entry partner, species assumed) above
Method: Full length p110 subunits of PI3K α, β and δ, N-terminally labeled with polyHis tag, were co-expressed with p85 in baculovirus expression vectors in sf9 insect cells. P110/p85 heterodimers were purified by sequential Ni-NTA, Q-HP, and Superdex-100 chromatography. Purified α, β and δ isozymes were stored at −20° C. in 20 mM Tris, pH 8, 0.2M NaCl, 50% glycerol, 5 mM DTT, 2 mM Na cholate.
PI3K enzyme assays (alpha, beta, delta and gamma) were performed in 25 mL with the above final concentrations of components in white polypropylene plates (Costar catalogue #3355). Phosphatidyl inositol phosphoacceptor, PtdIns(4,5)P2 (eg. P4508) was obtained from Echelon Biosciences. The ATPase activity of the alpha and gamma isozymes was not greatly stimulated by PtdIns(4,5)P2 under these conditions and was therefore omitted from the assay of these isozymes. Test compounds were dissolved in DMSO and diluted with three-fold serial dilutions. The compound in DMSO (1 μL) was added per test well, and the inhibition relative to reactions containing no compound, with and without enzyme was determined. After assay incubation at RT, the reaction was stopped and residual ATP determined by addition of an equal volume of a commercial ATP bioluminescence kit (Perkin Elmer EasyLite) according to the manufacturer's instructions, and detected using an Analyst GT luminometer.

[2] = HCT 116 cells, read-out: HCT 116 pAKT IC50
[3] = Homo sapiens, HCT-116, HCT 116 cells, read-out: HCT 116 pAKT IC50

| IC50 (PI3K α) [µM] | IC50 [1, 2] [µM] | IC50 (PI3K β) [µM] | IC50 [1, 3] [µM] | Compound | IC50 ([1]; Homo sapiens, HCT-116, read-out: HCT 116 pAKT IC50) [µM] |
| --- | --- | --- | --- | --- | --- |
| 0.0062 | 0.0083 | 0.0072 |  | CC(=O)Nc1nc2ccc(-c3cnc(Cl)c(NS(=O)(=O)c4ccc(C(C)O)cc4)c3)cc2s1 (single isomer, unassigned) [Example 257, N-(6-(6-chloro-5-(((4-(1-hydroxyethyl)phenyl)sulfonyl)amino)-3-pyridinyl)-1,3-benzothiazol-2-yl)acetamide] |  |
| 0.0076 | 0.0488 | 0.0114 |  | CC(=O)Nc1nc2ccc(-c3cnc(Cl)c(NS(=O)(=O)c4ccc(C(C)O)cc4)c3)cc2s1 (single isomer, unassigned) [Example 258] |  |
| 0.452 |  | > 40 | 0.789 | CC(=O)Nc1nc2ccc(-c3ccnc(OCc4cccnc4)n3)cc2s1 [Example 2, N-(6-(2-(3-pyridinylmethoxy)-4-pyrimidinyl)-1,3-benzothiazol-2-yl)acetamide] |  |
| 0.0956 |  | 0.24 | 3.51 | CC(=O)Nc1nc2ccc(-c3ccnc(OCc4ccccc4)n3)cc2s1 [Example 3, N-(6-(2-(benzyloxy)-4-pyrimidinyl)-1,3-benzothiazol-2-yl)acetamide] |  |
| 0.151 |  | 0.386 | 2.37 | CC(=O)Nc1nc2ccc(-c3ccnc(OCCCc4ccccc4)n3)cc2s1 [Example 4, N-(6-(2-(3-phenylpropoxy)-4-pyrimidinyl)-1,3-benzothiazol-2-yl)acetamide] |  |
| 0.24 |  | 2.14 | 0.919 | CC(=O)Nc1nc2ccc(-c3ccnc(OC(C)C)n3)cc2s1 [Example 6, N-(6-(2-(1-methylethoxy)-4-pyrimidinyl)-1,3-benzothiazol-2-yl)acetamide] |  |
| 0.523 |  | 11.1 | 1.06 | CC(=O)Nc1nc2ccc(-c3ccnc(OCc4ccncc4)n3)cc2s1 [Example 17, N-(6-(2-(4-pyridinylmethoxy)-4-pyrimidinyl)-1,3-benzothiazol-2-yl)acetamide] |  |
| 0.266 |  | 5.24 | 1.93 | CC(=O)Nc1nc2ccc(-c3ccnc(OCCCn4ccnn4)n3)cc2s1 [Example 20, N-(6-(2-(3-(1H-1,2,3-triazol-1-yl)propoxy)-4-pyrimidinyl)-1,3-benzothiazol-2-yl)acetamide] |  |
| 0.124 |  | > 40 | > 40 | CC(=O)Nc1nc2ccc(-c3ccnc(OCc4ccc5ncccc5c4)n3)cc2s1 [Example 22, N-(6-(2-(6-quinolinylmethoxy)-4-pyrimidinyl)-1,3-benzothiazol-2-yl)acetamide] |  |
| 0.0623 |  | 0.307 | 0.35 | CC(=O)Nc1nc2ccc(-c3ccnc(Sc4ccccc4F)n3)cc2s1 [Example 23, N-(6-(2-((2-fluorophenyl)sulfanyl)-4-pyrimidinyl)-1,3-benzothiazol-2-yl)acetamide] |  |
| 0.122 |  | 0.407 | 1.02 | CC(=O)Nc1nc2ccc(-c3ccnc(Sc4ccc(F)cc4)n3)cc2s1 [Example 26, N-(6-(2-((4-fluorophenyl)sulfanyl)-4-pyrimidinyl)-1,3-benzothiazol-2-yl)acetamide] |  |
| 0.04 |  | 0.201 | 0.594 | COc1ccc(Sc2nccc(-c3ccc4nc(NC(C)=O)sc4c3)n2)c(C)c1 [Example 27, N-(6-(2-((4-methoxy-2-methylphenyl)sulfanyl)-4-pyrimidinyl)-1,3-benzothiazol-2-yl)acetamide] |  |
| 0.0576 |  | 1.06 | 3.58 | CC(=O)Nc1nc2ccc(-c3ccnc(Sc4cccc(C)c4)n3)cc2s1 [Example 35, N-(6-(2-((3-methylphenyl)sulfanyl)-4-pyrimidinyl)-1,3-benzothiazol-2-yl)acetamide] |  |
| 0.0595 |  | 0.554 | 2.32 | CC(=O)Nc1nc2ccc(-c3ccnc(Sc4ccc(C)cc4)n3)cc2s1 [Example 36, N-(6-(2-((4-methylphenyl)sulfanyl)-4-pyrimidinyl)-1,3-benzothiazol-2-yl)acetamide] |  |
|  |  | 0.0104 | 0.0169 | CC(=O)Nc1nc2ccc(-c3cnc(Cl)c(NS(=O)(=O)c4cccc(F)c4)c3)cc2s1 [Example 183, N-(6-(6-chloro-5-(3-fluorophenylsulfonamido)pyridin-3-yl)benzo[d]thiazol-2-yl)acetamide] |  |
|  |  | 0.0081 | 0.0059 | CC(=O)Nc1nc2ccc(-c3cnc(Cl)c(NS(=O)(=O)c4cccc(Cl)c4)c3)cc2s1 [Example 185, N-(6-(6-chloro-5-(3-chlorophenylsulfonamido)pyridin-3-yl)benzo[d]thiazol-2-yl)acetamide] |  |
|  |  | 0.0074 | 0.0115 | CC(=O)Nc1nc2ccc(-c3cnc(Cl)c(NS(=O)(=O)c4ccc(C(F)(F)F)cc4)c3)cc2s1 [Example 190, N-(6-(6-chloro-5-(4-(trifluoromethyl)phenylsulfonamido)pyridin-3-yl)benzo[d]thiazol-2-yl)acetamide] |  |
|  |  | 0.0042 | 0.0026 | CC(=O)Nc1nc2ccc(-c3cnc(Cl)c(NS(=O)(=O)c4ccc(C(C)(C)C)cc4)c3)cc2s1 [Example 191, N-(6-(5-(4-tert-butylphenylsulfonamido)-6-chloropyridin-3-yl)benzo[d]thiazol-2-yl)acetamide] |  |
|  |  | 0.0116 | 0.151 | Nc1nc2ccc(-c3cnc(Cl)c(NS(=O)(=O)c4ccc(F)cc4)c3)cc2s1 [Example 192, N-(5-(2-aminobenzo[d]thiazol-6-yl)-2-chloropyridin-3-yl)-4-fluorobenzenesulfonamide] |  |
|  |  | 0.0217 | 0.0328 | COc1ccc(S(=O)(=O)Nc2cncc(-c3ccc4nc(NC(C)=O)sc4c3)c2)cc1 [Example 195, N-(6-(5-(4-methoxyphenylsulfonamido)pyridin-3-yl)benzo[d]thiazol-2-yl)acetamide] |  |
|  |  | 0.117 | 0.0711 | COc1ccc(S(=O)(=O)Nc2cc(-c3ccc4nc(NC(C)=O)sc4c3)ccn2)cc1 [Example 217, N-(6-(2-(4-methoxyphenylsulfonamido)pyridin-4-yl)benzo[d]thiazol-2-yl)acetamide] |  |
| 8.37 |  |  | > 5 | COc1cc(-c2ccc3nc(NC(C)=O)sc3c2)cnc1Br [Example 237, N-(6-(6-bromo-5-methoxypyridin-3-yl)benzo[d]thiazol-2-yl)acetamide] |  |
| 0.251 |  |  | 1.49 | CC(=O)Nc1nc2ccc(-c3cnc(Cl)c(F)c3)cc2s1 [Example 238, N-(6-(6-chloro-5-fluoropyridin-3-yl)benzo[d]thiazol-2-yl)acetamide] |  |

| Compound | IC50 (PI3K α) [µM] | IC50 [1, 2] [µM] | IC50 (PI3K β) [µM] | IC50 [1, 3] [µM] | IC50 ([1]; Homo sapiens, HCT-116, read-out: HCT 116 pAKT IC50) [µM] |
| --- | --- | --- | --- | --- | --- |
| CC(=O)Nc1nc2ccc(-c3ccnc(OCCc4ccccc4)n3)cc2s1 [Example 7, N-(6-(2-(2-phenylethoxy)-4-pyrimidinyl)-1,3-benzothiazol-2-yl)acetamide] | 0.226 |  | 2.61 |  | > 25 |
| COc1ccc(Sc2nccc(-c3ccc4nc(NC(C)=O)sc4c3)n2)cc1 [Example 16, N-(6-(2-(4-Methoxyphenylthio)pyrimidin-4-yl)benzo[d]thiazol-2-yl)acetamide] | 0.0535 |  | 0.106 | 0.825 |  |
| N-(6-(2-(3-morpholino)propoxy)-4-pyrimidinyl)-1,3-benzothiazol-2-yl)acetamide [Example 10] |  | 0.801 | 11 |  |  |
